Measurements as given in the NIST ThermoML archive (doi:10.1021/je200508x).

Test: molar heat capacity at constant pressure
Details: 101.33 kPa, Crystal, Vacuum adiabatic calorimetry

C=C(C)C(=O)[O][Sb]([O]C(=O)C(=C)C)([c]1ccccc1)([c]1ccccc1)[c]1ccccc1 [triphenyl-.lambda.5-stibanediyl bis(2-methylacrylate)]
Details | molar heat capacity at constant pressure [J/K/mol]
5 K | 2.01
5.69 K | 2.9
6.38 K | 4.02
7.1 K | 5.41
7.71 K | 6.68
8.27 K | 7.96
8.8 K | 9.25
9.02 K | 9.78
9.38 K | 10.7
9.91 K | 12
10 K | 12.3
10.45 K | 13.4
10.84 K | 14.3
11.3 K | 15.5
11.73 K | 16.5
12.1 K | 17.4
13.05 K | 19.9
13.67 K | 21.6
14.66 K | 24.5
15 K | 25.4
15.64 K | 27.4
16.62 K | 30.16
17.59 K | 33.15
18.52 K | 36.15
19.07 K | 37.69
19.58 K | 39.2
20 K | 40.48
21.68 K | 45.73
24.61 K | 55.52
25 K | 56.85
26.89 K | 62.82
28.78 K | 68.55
30 K | 72.23
31.21 K | 75.9
31.81 K | 78.04
33.66 K | 83.66
33.76 K | 84.46
35 K | 88.24
36.21 K | 92.11
38.67 K | 99.54
40 K | 103.4
41.14 K | 106.6
43.6 K | 113.8
45 K | 117.5
46.06 K | 120.5
48.52 K | 127.2
50 K | 131.7
50.62 K | 133.3
52.35 K | 138.3
56.62 K | 149.3
57.11 K | 150.1
59.23 K | 155.6
60 K | 157.4
61.69 K | 161.4
64.15 K | 167.4
66.61 K | 173.5
68.65 K | 178.9
70 K | 181.9
70.8 K | 183.9
73.27 K | 189.7
75.28 K | 193.9
77.44 K | 199
79.9 K | 204.6
80 K | 204.8
82.19 K | 210
84.03 K | 214.2
84.36 K | 214.5
86.03 K | 217.9
86.44 K | 219.2
88.12 K | 222.6
88.53 K | 223.9
90 K | 226.3
90.24 K | 227.1
90.62 K | 227.4
92.99 K | 232
95.37 K | 236.4
97.74 K | 240.6
100 K | 245.1
100.11 K | 245.2
102.48 K | 250
104.85 K | 254
107.22 K | 258.4
109.45 K | 262.8
110 K | 263.4
111.82 K | 266.7
114.3 K | 271.1
116.58 K | 275.1
118.96 K | 279
120 K | 280.8
121.34 K | 283
123.72 K | 286.8
126.1 K | 290.5
128.48 K | 294.9
130 K | 297.4
130.59 K | 298.4
132.7 K | 302.2
135.08 K | 306.4
139.6 K | 313.7
140 K | 314.6
141.3 K | 316.8
143.4 K | 321
145.22 K | 324.6
147.6 K | 328.9
149.99 K | 333.6
150 K | 333.6
152.36 K | 347.2
154.75 K | 352.6
157.14 K | 362.4
159.53 K | 372.2
160 K | 372.6
161.92 K | 369.5
164.34 K | 355.3
166.76 K | 356.4
169.15 K | 360
170 K | 361.2
171.6 K | 363.4
173.9 K | 366.7
175.85 K | 369.5
178.25 K | 372.5
180 K | 375.2
180.65 K | 376.2
183.05 K | 379.6
184.24 K | 380.9
187.35 K | 385.8
190 K | 389.6
190.9 K | 391.1
194.06 K | 395.5
197.17 K | 400.2
200 K | 404.7
200.73 K | 406
204.87 K | 412.6
209.58 K | 420
210 K | 420.5
214.29 K | 427
218.98 K | 434.2
220 K | 436.3
223.67 K | 442.1
228.35 K | 449.1
230 K | 451.7
232.58 K | 456.1
236.01 K | 461
240 K | 466.6
240.06 K | 466.4
244.71 K | 473.3
249.36 K | 480
250 K | 481.2
252.66 K | 484.9
256.66 K | 491.7
260 K | 496.3
261.29 K | 497.9
265.91 K | 505.5
270 K | 511.1
270.5 K | 511.7
275.08 K | 518.7
277.79 K | 522.4
280 K | 525.9
281.19 K | 527.2
284.56 K | 532.8
287.93 K | 538.8
290 K | 541.9
291.28 K | 544
294.6 K | 550.2
297.91 K | 555.7
298.15 K | 555.9
300 K | 559.1
301.2 K | 561.8
304.48 K | 566.7
307.74 K | 572.1
310 K | 576.3
310.99 K | 577.4
314.22 K | 583.3
317.43 K | 588.2
320 K | 592
320.63 K | 592.8
323.81 K | 597.8
327.25 K | 602.8
330 K | 607
330.43 K | 607
332.9 K | 611.4
334.78 K | 614.7
340 K | 621
350 K | 635
360 K | 649
370 K | 664
380 K | 679
390 K | 694
400 K | 709
